As usually defined, the IC50 is the concentration needed to halve the response being measured.

Calls of active or inactive are those of the source. The calls are words filed in the database; no cut-off is given here.

We go through three compounds from ChEMBL document CHEMBL4196045, “Identification of cisapride as new inhibitor of putrescine uptake in Trypanosoma cruzi by combined ligand- and structure-based virtual screening” (Eur J Med Chem, 2018).

In test [1] the target is T1, Putative amino acid transporter PAT12 (Trypanosoma cruzi) (UniProt Q6QT93).
T1 sequence (whole entry): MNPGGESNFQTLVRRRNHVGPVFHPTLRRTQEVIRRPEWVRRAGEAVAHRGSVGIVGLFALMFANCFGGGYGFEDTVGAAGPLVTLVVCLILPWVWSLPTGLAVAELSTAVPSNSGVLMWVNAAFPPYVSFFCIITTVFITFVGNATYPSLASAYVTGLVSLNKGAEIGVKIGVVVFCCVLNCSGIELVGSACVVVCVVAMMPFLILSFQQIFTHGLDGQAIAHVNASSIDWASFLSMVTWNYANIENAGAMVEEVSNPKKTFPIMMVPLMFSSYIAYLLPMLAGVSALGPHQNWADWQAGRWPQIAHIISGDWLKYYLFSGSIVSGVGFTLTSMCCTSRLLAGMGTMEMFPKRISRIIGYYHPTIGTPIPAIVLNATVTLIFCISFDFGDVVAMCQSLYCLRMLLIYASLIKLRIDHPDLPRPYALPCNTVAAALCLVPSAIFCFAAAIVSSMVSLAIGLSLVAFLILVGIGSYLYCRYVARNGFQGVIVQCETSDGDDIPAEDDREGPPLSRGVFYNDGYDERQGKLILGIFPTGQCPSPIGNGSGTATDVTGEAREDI
Briefly: Inhibition of Trypanosoma cruzi Y epimastigotes PAT12 assessed as reduction in initial velocity of [14C]-putrescine uptake at 50 uM in presence of non-radioactive putrescine by liquid scintillation counting method.

Test [2] concerns Trypanosoma cruzi. In words: Inhibition of Trypanosoma cruzi Y epimastigotes AAAP411 assessed as reduction in [1,4-14C]-arginine uptake in presence of non-radioactive arginine by liquid scintillation counting method.
Test [3] concerns Trypanosoma cruzi. In words: Antitrypanosomal activity against Trypanosoma cruzi Y epimastigotes after 7 days by hemocytometry. The class given is functional, organism-based. As to conditions: 168 h.
For test [4], the system named is Trypanosoma cruzi. In words: Antitrypanosomal activity against Trypanosoma cruzi Y epimastigotes at 100 uM after 7 days by hemocytometry. The class given is functional, organism-based.
Test [5] has as its system Trypanosoma cruzi. In words: Antitrypanosomal activity against Trypanosoma cruzi Y epimastigotes at 200 uM after 7 days by hemocytometry. The class given is functional, organism-based.

As to `NCc1ccccc1OC1CCCC1`, the inhibition result (in test [1]; in the test on Trypanosoma cruzi [2]) was “inactive” each time. Moreover, in the test with Trypanosoma cruzi [3], the half-maximal inhibitory concentration (IC50) came to 41.1 µM. Moreover, in the test on Trypanosoma cruzi [4], the outcome was Active.

For the compound `Cc1cccc(C)c1OCC(C)N` (racemic), the inhibition entry in test [1] is “inactive”. The result in the test on Trypanosoma cruzi [5] was inactive.

As for `CN(CCCOc1ccc2c(c1)OCO2)C1CCC(CO)CC1` (stereo not drawn), the inhibition result in test [1] is “inactive”. Further, the result with Trypanosoma cruzi [5] was inactive.
